One block for each compound: values may come before it.
Columns and labels:
[1] = system: elastase-induced abdominal aortic aneurysms; experiment: Elastase-induced rat model of abdominal aortic aneurysm; assay type: in vivo; conditions: 15 mg/kg/day; for inhibition of aortic dilatation induced by elastase perfusion: vs saline, FIG. 77
From the text: The following example is provided to assist in a further understanding of the present invention. The particular materials and conditions employed are intended to be further illustrative of the invention and are not limiting upon the reasonable scope thereof Male Wistar rats (350-400 g) were subjected to perfusion of an isolated segment of the infrarenal abdominal aorta with 50 units of porcine pancreatic elastase, using the method described by Anidjar et al. (Anidjar, S. Salzmann, J L, Generic, D, Lagneau, P, Camilleri, J P, and Michel, J B, “Elastase induced experimental aneurysms in rats,” Circulation 82:973-981 (1990); Halpern et al. (Halpern, V J. Liao, Nackman, G B, Gandhi, R H, Irizarry, E, Scholes, J V, Ramey, W G, and Tilson, M D, “The elastase infusion model of experimental aortic aneurysms: Synchrony of induction of endogenous protinases with matrix destruction and inflammatory cell response, “J. Vasc. Surg. […] Surg 23:336-346(1996)). This method is an accepted model for experimental induction of abdominal aortic aneurysms. The animals (n=6 rats in each group) were then treated with twice-daily subcutaneous injections of either saline vehicle (control), or various doses of doxycycline (Dox) or one of four different, non-antibiotic, chemically-modified tetracyclines (CMTs; CollaGenex, Inc., Newtown, Pa.). Aortic diameter (AD) was measured with microcalipers before and after elastase perfusion, and just prior to sacrifice on day 7. Abdominal aortic aneurysms were defined as an increase in final AD to at least twice that measured before perfusion (≥100% increase). Aortic tissues from two animals in each group were perfusion-fixed with 10% neutral buffered formalin, embedded in paraffin, and stained with Verhoeff-van Geisen (VVG) for elastin. Tissues from the remaining animals were extracted, normalized to total protein, and analyzed by gelatin substrate zymography as described (Thompson et al. 1995; Halpern et al. 1994; Petrinec 1996).

[2] = Liquid formulations of water insoluble rapamycins: concentration (HPLC) and visual observation; assay type: physicochemical
From the text: In accordance with exemplary embodiments of the present invention, a series of liquid formulations were developed for the local or regional delivery of water insoluble compounds such as sirolimus and its analogs, including CCI-779, ABT-578 and everolimus, through weeping balloons and catheter injection needles. […] These liquid formulations increase the apparent solubility of the pharmacologically active but water insoluble compounds by two to four orders. of magnitude as compared to the solubility limits of the compounds in water. These liquid formulations rely on the use of a very small amount of organic solvents such as Ethanol (typically less than two percent) and a larger amount of safe-amphiphilic (of or relating to a molecule having-a polar; water soluble group attached to a non-polar, water insoluble […]) excipients such as polyethylene glycol (PEG 200, PEG 400) and vitamin E TPGS to enhance the solubility of the compounds. These liquid formulations of highly. water insoluble compounds are stable and readily flowable at room temperature. Certain excipients, such as Vitamin E TPGS and BHT may be utilized to enhance the storage stability of sirolimus compounds through their anti-oxidation properties. […]

[3] = system: human coronary artery smooth muscle cells; experiment: Anti-proliferative activity in non-synchronized cultured human coronary artery smooth muscle cells stimulated with two percent fetal bovine serum; assay type: cell-based; conditions: for effect of addition on the anti-proliferative rapamycin dose response curve: mycophenolic acid zero to one thousand nanomolar (FIG. 52), cladribine zero to nine hundred nanomolar (FIG. 57)
From the text: The multiple curves represent various concentrations of mycophenolic acid ranging from zero to one thousand nanomolar concentrations.
FIG. 58 illustrates, in graphical format, the anti-proliferative activity of cladribine in non-synchronized cultured human coronary artery smooth muscle cells stimulated with two percent fetal bovine serum.
The multiple curves represent various concentrations of cladribine ranging from zero to nine hundred nanomolar concentrations.

[4] = In vivo release kinetics from stent coatings in porcine pharmacokinetics studies
From the text: The topcoat is two hundred micro grams.
The basecoat is applied to Bx Velocity® stents and implanted into Yorkshire pigs.
Another critical parameter for the performance of the thrombus resistance of a device coated with cilostazol is the duration of the drug release from the coating. This is of particular significance in the two weeks after device implantation. […] The purpose of the porcine PK study is to assess the local pharmacokinetics of a drug eluting stent at a given implantation time. Normally three stents are implanted in three different coronary arteries in a pig for a given time point and then retrieved for total drug recovery analysis. The stents are retrieved at predetermined time points; namely, 1, 3 and 8 days. The stents are extracted and the total amount of drug remaining on the stents is determined by analysis utilizing HPLC (high performance liquid chromatography) for total drug amount. The difference between the original amount of drug on the stent and the amount of drug retrieved at a given time represents the amount of drug released in that period. The continuous release of drug into surrounding arterial tissue is what prevents the neointimal growth and restenosis in the coronary artery. A normal plot represents the percentage of total drug released (%, y-axis) vs. time of implantation (day, x-axis). […] In this exemplary configuration, the stent 8600 is coated with two layers. The first layer 8602 comprises a combination of sirolimus, cilostazol and a copolymer matrix of EVA/BMA. The second layer or diffusion overcoat 8604 comprises only BMA. More specifically, in this embodiment, the first layer 8602 comprises a combination of sirolimus and cilastazol that is forty-five (45) percent by weight of the total weight of the first layer 8602 and an EVA/BMA copolymer matrix that is fifty-five (55) percent by weight of the total weight of the first layer 8602. The diffusion overcoat comprises one hundred (100 μg) micrograms of BMA.
Pigs are an established animal species for intravascular stent studies and accepted for such studies by the appropriate regulatory agencies. This in vivo study utilized male pigs of the species Sus Scrofa and strain Yoorkshire pigs. S.M.A.R.T.™ stents, available from Cordis Corporation, were placed into the iliac and femoral arteries, PALMAZ® GENESIS™ stents, available from Cordis Corporation, were placed in the renal arteries and CYPHER™ stents, available from Cordis Corporation, were placed in the coronary arteries.

[5] = system: human coronary artery smooth muscle cells; experiment: Anti-proliferative activity in synchronized cultured human coronary artery smooth muscle cells stimulated with two percent fetal bovine serum; assay type: cell-based; conditions: topotecan to 300 nanomolar (FIG. 64), etoposide to eight hundred nanomolar (FIG. 65), Panzem to 100 micromolar (FIG. 68)
From the text: (§1) The multiple curves represent various concentrations of topotecan ranging from zero to three hundred nanomolar concentrations.
(§2) The multiple curves represent various concentrations of etoposide ranging from zero to eight hundred nanomolar concentrations.
The multiple curves represent various concentrations of Panzem® ranging from zero to 100 micromolar concentrations.

[6] = Cell viability assay (cytotoxicity); assay type: cell-based
From the text: as §1, §2

[7] = system: human coronary artery smooth muscle cell; experiment: In vitro cell culture study of human coronary artery smooth muscle cell proliferation (trichostatin A); assay type: cell-based
From the text: FIG. 51 is a graph of the inhibition of coronary artery smooth muscle cells by trichostatin A in a cell culture study.

tumor cell lines = conditions: cited from earlier work

Compound: 4-dedimethylamino-12a-deoxytetracycline [CMT-7]
relative efficacy in suppressing aneurysmal dilatation compared to Dox at the same dose [1]: 92%
inhibition of aortic dilatation induced by elastase perfusion [1]: statistically significant

concentration in the final solution (HPLC assay) ([2]; ethanol (less than two percent), Vitamin E TPGS and water): 15000 µg/mL
Compound: CO[C@H]1C[C@@H]2CC[C@@H](C)[C@@](O)(O2)C(=O)C(=O)N2CCCC[C@H]2C(=O)O[C@H]([C@H](C)C[C@@H]2CC[C@@H](OC(=O)C(C)(CO)CO)[C@H](OC)C2)CC(=O)[C@H](C)/C=C(\C)[C@@H](O)[C@@H](OC)C(=O)[C@H](C)C[C@H](C)/C=C/C=C/C=C/1C [CCl-779]

Compound: NC(=O)C1=C(O)C[C@@H]2C[C@@H]3Cc4cccc(O)c4C(=O)C3=C(O)[C@]2(O)C1=O [CMT-3, 6-demethyl-6-deoxy-4-dedimethylaminotetracycline]
relative efficacy in suppressing aneurysmal dilatation compared to Dox at the same dose [1]: 92%
inhibition of aortic dilatation induced by elastase perfusion [1]: statistically significant

Compound: CC1(O)c2c(Cl)ccc(O)c2C(=O)C2=C(O)C3(O)C(=O)C(C(N)=O)=C(O)CC3CC21 (centres unmarked) [CMT-4, 4-dedimethylamino-7-chlorotetra-cycline]
relative efficacy in suppressing aneurysmal dilatation compared to Dox at the same dose [1]: 75%
inhibition of aortic dilatation induced by elastase perfusion [1]: did not reach statistical significance

Compound: C[C@H]1c2cccc(O)c2C(O)=C2C(=O)[C@]3(O)C(O)=C(C(N)=O)C(=O)C[C@@H]3[C@@H](O)[C@@H]21 [CMT-8, 6-α-deoxy-5-hydroxy-4-dedimethylaminotetracycline]
relative efficacy in suppressing aneurysmal dilatation compared to Dox at the same dose [1]: 105%
inhibition of aortic dilatation induced by elastase perfusion [1]: statistically significant

in vivo elution from the polymeric stent coating, comparison ([4]; EVA/BMA basecoat with rapamycin and cladribine, BMA topcoat, FIGS. 62, 63): elutes more rapidly than rapamycin
Compound: Nc1nc(Cl)nc2c1ncn2[C@H]1C[C@H](O)[C@@H](CO)O1 [Cladribine, 2-chlorodeoxyadenosine]
inhibition of human coronary artery smooth muscle cell proliferation ([3]; FIG. 58): completely inhibits
effect of addition on the anti-proliferative rapamycin dose response curve [3]: potentiate the anti-proliferative activity of rapamycin

Compound: COc1cc([C@@H]2c3cc4c(cc3[C@@H](O[C@@H]3O[C@@H]5CO[C@@H](C)O[C@H]5[C@H](O)[C@H]3O)[C@H]3COC(=O)[C@H]23)OCO4)cc(OC)c1O [etoposide]
effect of addition on the anti-proliferative rapamycin dose response curve [5]: increases the percent inhibition of rapamycin alone
cytotoxicity in cell viability assay ([6]; at concentrations up to ten micromolar): non-cytotoxic

Compound: COc1c(C)c2c(c(O)c1C/C=C(\C)CCC(=O)O)C(=O)OC2 [mycophenolic acid]
effect of addition on the anti-proliferative rapamycin dose response curve [3]: potentiates the anti-proliferative activity of rapamycin
in vivo release from the basecoat, comparison ([4]; EVA/BMA basecoat with rapamycin and mycophenolic acid, BMA topcoat, FIGS. 53, 54): elutes more completely over a shorter duration than the rapamycin

peak elution release at three days ([4]; PVDF/HFP (60/40) and rapamycin basecoat with 167 microgram PVDF/HFP topcoat, curve 4902): greater than seventy-five
peak elution release at three days ([4]; PVDF/HFP (60/40) and rapamycin basecoat with 490 microgram BMA topcoat, curve 4912): less than fifty
drug remaining in the drug coating ([4]; after eight (8) days of implantation, single layer sirolimus/cilostazol EVA/BMA coating with 100 μg BMA overcoat (FIG. 86), FIG. 84): ~80%
concentration relative to the solubility of sirolimus in water ([2]; 4 mg/ml PEG 200 formulation): four hundred to about one thousand
Compound: CO[C@H]1C[C@@H]2CC[C@@H](C)[C@@](O)(O2)C(=O)C(=O)N2CCCC[C@H]2C(=O)O[C@H]([C@H](C)C[C@@H]2CC[C@@H](O)[C@H](OC)C2)CC(=O)[C@H](C)/C=C(\C)[C@@H](O)[C@@H](OC)C(=O)[C@H](C)C[C@H](C)/C=C/C=C/C=C/1C [rapamycin]
in vivo release rate, comparison ([4]; PVDF basecoat with rapamycin and mycophenolic acid, PVDF topcoat, FIG. 56): slower release rate than that of mycophenolic acid

Compound: CC[C@@]1(O)C(=O)OCc2c1cc1n(c2=O)Cc2cc3c(CN(C)C)c(O)ccc3nc2-1 [topotecan]
effect of addition on the anti-proliferative rapamycin dose response curve [5]: potentiate the anti-proliferative activity of rapamycin
cytotoxicity in cell viability assay ([6]; at concentrations up to one micromolar): non-cytotoxic

Compound: CC(/C=C/C(=O)NO)=C\[C@@H](C)C(=O)c1ccc(N(C)C)cc1 [trichostatin A]
IC50 ([7]; human coronary artery smooth muscle cell proliferation, read-out: anti-proliferative IC50): ~6 nM
inhibition of human coronary artery smooth muscle cell proliferation ([7]; in vitro cell culture): completely inhibit
anti-proliferative IC50 (tumor cell lines): low nM range

Reference: patent publication US20070173787A1, “Thin-film nitinol based drug eluting stent” (priority 2005, published 2007)
